Measurements reported in patent publication US20120027807A1, “TISSUE ENGINEERED MYOCARDIUM AND METHODS OF PRODUCTION AND USES THEREOF” (THE GENERAL HOSPITAL CORPORATION, priority 2008, published 2012).

Experiments:
[1] = system: R+G+ derived ventricular myocytes; format: cell-based, mouse
[2] = system: gap junctions (e.g. Connexin 43); experiment: Heptanol wash-in / wash-out on muscular thin film; format: cell-based, mouse
Source text: FIGS. 10A-10D show the tissue engineered myocardium on a muscular thin film derived from cardiac progenitor cells. […] All the heptanol was not washed-out resulting in the reduced contractility after cell-cell electrical coupling was restored.

In the case of `NC1=N[C@H](O)[C@H]2[C@H]3O[C@]4(O)O[C@@H]([C@@H](O)[C@@]2(N1)[C@@H]4O)[C@]3(O)CO` [TTX, tetrodotoxin], the “effect on the transmembrane action potential” value [1] is reported as “ablated the action potential”.
In the case of `CCCCCCCO` [heptanol], the “contractions after heptanol wash-out” value ([2]; partial wash-out) is reported as “partial washout restores contractions” and the “coupling of cardiomyocytes by gap junctions” value ([2]; wash-in then wash-out of heptanol, MTF contractile force over time) is reported as “reversibly blocked”.
